Test results reported in patent publication US20250345392A1, “ANNEXIN A1 LIQUID PHARMACEUTICAL COMPOSITION” (ResoTher Pharma A/S, priority 2022, published 2025).
Like-named read-outs stand apart in the source and are kept apart here. Ends that are not written are not given here.

Assay: Clinical test in humans, three 30-min i.v. infusions 8 hours apart, plasma PK
Format: in vivo
Conditions: human, three 30-min i.v. infusions 8 h apart; for AUC / Cmax / Tmax / AUC(0-t) / half-life: iv; for AUC(0-t): read-out: AUC0-24; for half-life: after the last infusion
Method: A total of 8 subjects were included in each group. In each group, 6 subjects received the active treatment and 2 received the placebo. The active treatment was as follows in each group: • Group 9 received three 8 hours apart 30-min Peptide 1 intravenous (i.v.) infusions, wherein each i.v. infusion corresponded to a dose of 50 μg/kg. • Group 10 received three 8 hours apart 30-min Peptide 1 intravenous (i.v.) infusions, wherein each i.v. infusion corresponded to a dose of 100 μg/kg. • Group 11 received three 8 hours apart 30-min Peptide 1 intravenous (i.v.) infusions, wherein each i.v. infusion corresponded to a dose of 140 μg/kg. • Group 12 received three 8 hours apart 30-min Peptide 1 intravenous (i.v.) infusions, wherein each i.v. infusion corresponded to a dose of 200 μg/kg. • Group 13 received three 8 hours apart 30-min Peptide 1 intravenous (i.v.) infusions, wherein each i.v. infusion corresponded to a dose of 250 μg/kg.
The tested liquid pharmaceutical composition has a pH of 8.2-8.4, and comprises the following: • i) 5 mg/ml of Peptide 1, • ii) 4% (w/w) mannitol, • iii) 1% (w/w) sucrose, • iv) 0.01% (w/w) Polysorbate-80, • v) 10 mM glycyl-glycine, and • vi) sterile water for injection.
Venous whole blood samples were collected from all subjects.
Plasma samples were analyzed for Peptide 1 using validated Liquid chromatography—Tandem Mass spectrometry (LC-MS/MS) methods by Charles River Laboratories (CRL).
Derivation of PK parameters were carried out by PhinC Development using Phoenix WinNonlin® (Version Phoenix 8.1—Certara—Princeton—USA). A non-compartmental analysis (NCA) approach was chosen.
For the calculation of the PK parameters and characteristics the following rules were applied: • All the plasma concentrations validated by the bioanalytical laboratory and provided to the pharmacokinetics were used for the PK analysis. • The theoretical PK blood sampling time points were used. • At time points in the lag-time between time zero and the first concentration equal or above limit of quantification (LOQ), concentrations below the LOQ (BLQ) were set to zero (0). • Concentrations BLQ between 2 concentrations equal or above LOQ were considered as missing. • Trailing concentrations (at time point between time of last measurable concentrations and time of last blood sample) BLQ were not used in calculations. • For 3 infusions regimen, each infusion was considered separately and BLQ rules were applied for each infusion. […] If the pre-dose value was greater than 5% of Cmax, the subject was dropped from all statistical evaluations.
AUC0-tau was only calculated if there were at least 3 concentrations above LOQ. • AUC0-24: The area under the plasma concentration-time curve from time zero (pre-dose) to 24 h was calculated as the sum of the 3 AUC0-tau: AUC0-24=AUC0-tau1+AUC0-tau2+AUC0-tau3. • AUC0-t: The area under the concentration-time curve from time zero (pre-dose) to the time of last quantifiable concentration was calculated using a linear trapezoidal method after each administration (AUC0-t1, AUC0-t2 and AUC0-t3, where AUC0-t1 was AUC0-t corresponded to the AUC from pre-dose to the last measurable quantifiable concentration following the first infusion). AUC0-t was only calculated if there were at least 3 concentrations above LOQ. • ke: The terminal plasma elimination rate-constant was estimated from log-linear regression analysis of the terminal phase of the plasma concentration-time profile. The number of points included in the terminal phase was determined by visual inspection of the semi-log plots of the plasma concentration-time profiles. A minimum of 3 data points, including the last measured data point and excluding Cmax, had to be available for the regression. The correlation coefficient for the goodness of the fit of the regression line through the data points (r^2) had to be 0.8000 or higher, for the value to be considered reliable. […]

- AUC (in vivo, 250 ug/kg, 250 μg/kg each, mean, read-out: AUC0-t3): 2430 ng·h/mL
- AUC (in vivo, 250 ug/kg, 250 μg/kg each, mean, read-out: AUC0-tau1): 2630 ng·h/mL
- AUC (in vivo, 250 ug/kg, 250 μg/kg each, mean, read-out: AUC0-tau2): 2440 ng·h/mL
- AUC (in vivo, 250 ug/kg, 250 μg/kg each, mean, read-out: AUC0-tau3): 2480 ng·h/mL
- Cmax (in vivo, 250 ug/kg, 250 μg/kg each, mean, read-out: Global Cmax): 2330 ng/mL
- Tmax (in vivo, 250 ug/kg, 250 μg/kg each, median, read-out: Global tmax): 8.5 h
- Tmax (in vivo, 250 ug/kg, 250 μg/kg each, median, read-out: tmax3): 16.5 h
- AUC (in vivo, 50 μg/kg each, GM, read-out: AUC0-t1): 417 ng·h/mL
- AUC (in vivo, 50 μg/kg each, GM, read-out: AUC0-tau1): 509 ng·h/mL
- AUC (in vivo, 50 μg/kg each, mean, read-out: AUC0-tau2): 517 ng·h/mL
- AUC (in vivo, 50 μg/kg each, mean, read-out: AUC0-tau3): 541 ng·h/mL
- AUC(0-t) (in vivo, 100 μg/kg each, GM): 3600 ng·h/mL
- AUC (in vivo, 100 μg/kg each, GM, read-out: AUC0-t1): 982 ng·h/mL
- AUC (in vivo, 100 μg/kg each, GM, read-out: AUC0-t2): 1120 ng·h/mL
- AUC (in vivo, 100 μg/kg each, GM, read-out: AUC0-t3): 1090 ng·h/mL
- AUC (in vivo, 100 μg/kg each, mean, read-out: AUC0-t1): 993 ng·h/mL
- AUC (in vivo, 100 μg/kg each, mean, read-out: AUC0-tau1): 1120 ng·h/mL
- AUC (in vivo, 100 μg/kg each, mean, read-out: AUC0-tau2): 1240 ng·h/mL
- AUC (in vivo, 100 μg/kg each, mean, read-out: AUC0-tau3): 1260 ng·h/mL
- Cmax (in vivo, 100 μg/kg each, mean, read-out: Global Cmax): 1020 ng/mL
- half-life (in vivo, 140 μg/kg each, GM): 116 min
- AUC(0-t) (in vivo, 140 μg/kg each, GM): 5310 ng·h/mL
- AUC (in vivo, 140 μg/kg each, GM, read-out: AUC0-t3): 1570 ng·h/mL
- AUC (in vivo, 140 μg/kg each, mean, read-out: AUC0-tau3): 1710 ng·h/mL
- half-life (in vivo, 200 μg/kg each, GM): ~120 min
- AUC (in vivo, 200 μg/kg each, GM, read-out: AUC0-t1): 2490 ng·h/mL
- AUC (in vivo, 200 μg/kg each, GM, read-out: AUC0-tau1): 2590 ng·h/mL
- AUC (in vivo, 200 μg/kg each, GM, read-out: AUC0-tau2): 2750 ng·h/mL
- AUC (in vivo, 200 μg/kg each, GM, read-out: AUC0-tau3): 2710 ng·h/mL
- Cmax (in vivo, 200 μg/kg each, mean, read-out: Global Cmax): 2370 ng/mL
- half-life (in vivo, 250 μg/kg each, GM): ~120 min
- AUC (in vivo, 250 μg/kg each, GM, read-out: AUC0-t1): 2500 ng·h/mL
- AUC (in vivo, 250 μg/kg each, GM, read-out: AUC0-t2): 2300 ng·h/mL
- AUC (in vivo, 250 μg/kg each, GM, read-out: AUC0-tau3): 2460 ng·h/mL
- Tmax (in vivo, all subjects except one (time of the end of infusion), read-out: tmax after each administration): 0.5 h
- Cmax (plasma, 50 μg/kg, 50 μg/kg each, GM, read-out: Cmax1): 403 ng/mL
- Cmax (plasma, 50 μg/kg, 50 μg/kg each, mean, read-out: Cmax2): 395 ng/mL
- Cmax (plasma, 100 μg/kg, 100 μg/kg each, GM, read-out: Cmax1): 877 ng/mL
- Cmax (plasma, 100 μg/kg, 100 μg/kg each, GM, read-out: Cmax3): 958 ng/mL
- Cmax (plasma, 100 μg/kg, 100 μg/kg each, mean, read-out: Cmax1): 883 ng/mL
- Cmax (plasma, 100 ug/kg, 100 μg/kg each, mean, read-out: Cmax2): 977 ng/mL
- Cmax (plasma, 140 μg/kg, 140 μg/kg each, GM, read-out: Cmax1): 1310 ng/mL
- Cmax (plasma, 140 μg/kg, 140 μg/kg each, GM, read-out: Cmax3): 1220 ng/mL
- Cmax (plasma, 140 μg/kg, 140 μg/kg each, mean, read-out: Cmax1): 1340 ng/mL
- Cmax (plasma, 200 μg/kg, 200 μg/kg each, GM, read-out: Cmax3): 2130 ng/mL
- Cmax (plasma, 200 μg/kg, 200 μg/kg each, mean, read-out: Cmax1): 2190 ng/mL
- Cmax (plasma, 200 μg/kg, 200 μg/kg each, mean, read-out: Cmax2): 2050 ng/mL
- Cmax (plasma, 250 μg/kg, 250 μg/kg each, GM, read-out: Cmax1): 1890 ng/mL
- Cmax (plasma, 250 μg/kg, 250 μg/kg each, GM, read-out: Cmax2): 1800 ng/mL
- Cmax (plasma, 250 μg/kg, 250 μg/kg each, GM, read-out: Cmax3): 1780 ng/mL
- Cmax (plasma, 250 μg/kg, 250 μg/kg each, mean, read-out: Cmax1): 1960 ng/mL
- Cmax2 (50 μg/kg each, GM): 391 ng/mL
- Cmax3 (50 μg/kg each, GM): 396 ng/mL
- tmax1 (50 μg/kg each, GM): 30 min
- tmax2 (50 μg/kg each, GM): 8.50 h
- Cmax1 (50 μg/kg each, mean): 406 ng/mL
- tmax1 (50 μg/kg each, median): 30 min
- tmax2 (50 μg/kg each, median): 8.50 h
- tmax3 (50 μg/kg each, median): 16.50 h
- Cmax2 (100 μg/kg each, GM): 971 ng/mL
- tmax1 (100 μg/kg each, GM): 30 min
- tmax2 (100 μg/kg each, GM): 8.50 h
- tmax3 (100 μg/kg each, GM): 16.50 h
- Cmax3 (100 μg/kg each, mean): 970 ng/mL
- tmax1 (100 μg/kg each, median): 30 min
- tmax2 (100 μg/kg each, median): 8.50 h
- Cmax2 (140 μg/kg each, GM): 1360 ng/mL
- tmax1 (140 μg/kg each, GM): 30 min
- tmax2 (140 μg/kg each, GM): 8.47 h
- tmax3 (140 μg/kg each, GM): 16.50 h
- Cmax2 (140 μg/kg each, mean): 1390 ng/mL
- Cmax3 (140 μg/kg each, mean): 1240 ng/mL
- tmax1 (140 μg/kg each, median): 30 min
- tmax2 (140 μg/kg each, median): 8.50 h
- AUC0-tau3 (200 μg/kg each, GM): 2774.47 ng·h/mL
- Cmax1 (200 μg/kg each, GM): 2170 ng/mL
- Cmax2 (200 μg/kg each, GM): 2020 ng/mL
- tmax1 (200 μg/kg each, GM): 30 min
- tmax2 (200 μg/kg each, GM): 8.50 h
- tmax3 (200 μg/kg each, GM): 16.47 h
- Cmax3 (200 μg/kg each, mean): 2170 ng/mL
- tmax1 (200 μg/kg each, median): 30 min
- tmax2 (200 μg/kg each, median): 8.50 h
- tmax2 (250 μg/kg each, GM): 8.54 h
- tmax3 (250 μg/kg each, GM): 16.44 h
- Cmax2 (250 μg/kg each, mean): 1930 ng/mL
- Cmax3 (250 μg/kg each, mean): 1800 ng/mL
- tmax1 (250 μg/kg each, median): 30 min
- tmax2 (250 μg/kg each, median): 8.50 h
Substance: AMVSEFLKQAWFIENEEQEYVQTLKSSKGGPGSAVSPYPTFNPSSDV-NH2 [Peptide 1]
